Paper PMC10763754 (Science Advances, 2021)
Entries after “also recorded” stand apart in the source; their conditions may differ.

target: CDC34A-ubiquitin complex (Homo sapiens, UniProt P0CG48+P49427); test: biochemical; assay type: binding; conditions: not given
Sequence (P49427 whole entry, other chains not shown): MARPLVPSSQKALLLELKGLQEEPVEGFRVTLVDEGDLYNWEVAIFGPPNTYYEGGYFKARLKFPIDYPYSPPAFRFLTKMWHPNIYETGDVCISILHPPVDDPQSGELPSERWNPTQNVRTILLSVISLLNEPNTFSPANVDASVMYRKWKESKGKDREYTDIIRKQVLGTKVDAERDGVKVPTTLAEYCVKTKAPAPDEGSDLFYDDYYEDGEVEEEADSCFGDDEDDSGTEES

activity in the TR-FRET assay (in words)	EC50	fold worse than CC0651 in the TR-FRET screen assay	fold improvement in TR-FRET potency compared to hit 1	fold increase in TR-FRET potency relative to parent 2ab	SMILES
lacked activity					COCC(=O)N1CCC(Cc2ccc(-c3cc(Cl)cc(Cl)c3)cc2)(C(N)=O)CC1 [2ac]
	327 µM	10 fold			COCC(=O)N1CCC(Cc2ccc(-c3cccc(C)c3)cc2)(C(=O)NC(C)C)CC1 [compound 1]
			27 fold		COCC(=O)N1CCC(Cc2ccc(-c3cc(Cl)cc(Cl)c3)cc2)(C(=O)NC(C)C)CC1 [2aa]
			> 80 fold		CCNC(=O)C1(Cc2ccc(-c3cc(Cl)cc(Cl)c3)cc2)CCN(C(=O)COC)CC1 [2ab]
abolished TR-FRET activity					CCC(=O)NC1(Cc2ccc(-c3cc(Cl)cc(Cl)c3)cc2)CCN(C(=O)COC)CC1 [3b]
completely inactive					COCC(=O)N1CCC(O)(c2ccc(-c3cc(Cl)cc(Cl)c3)cc2)CC1 [compound 6]
abolished TR-FRET activity					COCC(=O)N1CCC(Cc2ccc(-c3cc(Cl)cc(Cl)c3)cc2)(NC(C)=O)CC1 [3a]
abolished activity					COCC(=O)N1CCC(Cc2ccc(-c3cc(Cl)cc(Cl)c3)cc2)(c2nnc(C)o2)CC1 [4a]
abolished activity					Cc1nnc(C2(Cc3ccc(-c4cc(Cl)cc(Cl)c4)cc3)CCN(C(=O)COc3ccccc3)CC2)o1 [4b]
complete abrogation of activity					CCCCCN1CCC(Cc2ccc(-c3cc(Cl)cc(Cl)c3)cc2)(C(=O)OCC)CC1 [compound 7]
lacked activity					COCC(=O)N1CCC(Cc2ccc(-c3cc(Cl)cc(Cl)c3)cc2)(C(=O)O)CC1 [compound 12]
				10 fold	CCNC(=O)C1(Cc2ccc(-c3cc(Cl)cc(Cl)c3)cc2)CCN(C(=O)OCC(C)C)CC1 [2db]

SMILES	activity in the TR-FRET assay (in words)	EC50	fold worse than CC0651 in the TR-FRET screen assay	fold improvement in TR-FRET potency compared to hit 1	fold increase in TR-FRET potency relative to parent 2ab
COCC(=O)N1CCC(Cc2ccc(-c3cc(Cl)cc(Cl)c3)cc2)(C(=O)NCCO)CC1 [2ai]	abrogated activity; also recorded: complete loss of activity				
COCC(=O)N1CCC(Cc2ccc(-c3cc(Cl)cc(Cl)c3)cc2)(C(=O)NC[C@@H](C)O)CC1 [2at]	abrogated activity; also recorded: complete loss of activity				
COCC(=O)N1CCC(Cc2ccc(-c3cc(Cl)cc(Cl)c3)cc2)(C(=O)NC[C@@H](O)CO)CC1 [2au]	abrogated activity; also recorded: complete loss of activity				

same assay, conditions: TR-FRET EC50

EC50	SMILES
2 µM	CCNC(=O)C1(Cc2ccc(-c3cc(Cl)cc(Cl)c3)cc2)CCN(C(=O)c2ccccc2)CC1 [2gb]
12 µM	COCC(=O)N1CCC(Cc2ccc(-c3cc(Cl)cc(Cl)c3)cc2)(C(=O)NC(C)C)CC1 [2aa]
17 to 23 µM	CCNC(=O)C1(Cc2ccc(-c3cc(Cl)cc(Cl)c3)cc2)CCN(C(=O)[C@@H]2CCCO2)CC1 [2fb]
4 µM	CCNC(=O)C1(Cc2ccc(-c3cc(Cl)cc(Cl)c3)cc2)CCN(C(=O)COC)CC1 [2ab]
2 µM	CCNC(=O)C1(Cc2ccc(-c3cc(Cl)cc(Cl)c3)cc2)CCN(C(=O)CCOC)CC1 [2cb]
15 µM	COCC(=O)N1CCC(Cc2ccc(-c3cc(Cl)cc(Cl)c3)cc2)(C(=O)NC(C)(C)C)CC1 [2as]
3 µM	COCC(=O)N1CCC(Cc2ccc(-c3cc(Cl)cc(Cl)c3)cc2)(C(=O)N2CCOCC2)CC1 [2aζ]
17 to 23 µM	CCNC(=O)C1(Cc2ccc(-c3cc(Cl)cc(Cl)c3)cc2)CCN(C(=O)[C@H]2CCCO2)CC1 [2eb]
5 µM	COCC(=O)N1CCC(Cc2ccc(-c3cc(Cl)cc(Cl)c3)cc2)(C(=O)NC2CC2)CC1 [2al]
1 µM	COCC(=O)N1CCC(Cc2ccc(-c3cc(Cl)cc(Cl)c3)cc2)(C(=O)N2CCCCC2)CC1 [2aη]
20 µM	CNC(=O)C1(Cc2ccc(-c3cc(Cl)cc(Cl)c3)cc2)CCN(C(=O)COC)CC1 [2ad]
4 µM	CCCNC(=O)C1(Cc2ccc(-c3cc(Cl)cc(Cl)c3)cc2)CCN(C(=O)COC)CC1 [2ae]
3 µM	COCC(=O)N1CCC(Cc2ccc(-c3cc(Cl)cc(Cl)c3)cc2)(C(=O)N2CCCC2)CC1 [2aα]
0.4 µM	CCNC(=O)C1(Cc2ccc(-c3cc(Cl)cc(Cl)c3)cc2)CCN(C(=O)OCC(C)C)CC1 [2db]
26 µM	CCCCCNC(=O)C1(Cc2ccc(-c3cc(Cl)cc(Cl)c3)cc2)CCN(C(=O)COC)CC1 [2ak]
7 µM	COCC(=O)N1CCC(Cc2ccc(-c3cc(Cl)cc(Cl)c3)cc2)(C(=O)NCC2CC2)CC1 [2ah]

target: CDC34A (Homo sapiens, UniProt P0CG48+P49427); test: not given; conditions: cited from earlier work
Sequence (P49427 whole entry, other chains not shown): as above

SMILES	potency of CC0651 in vitro
COCC(=O)N[C@@H](Cc1ccc(-c2cc(Cl)cc(Cl)c2)cc1)[C@H](O)[C@@H](O)C(=O)O [CC0651]	~ 5 μM
